In ChEMBL document CHEMBL4602618, “Novel compounds that reverse the disease phenotype in Type 2 Gaucher disease patient-derived cells” (Bioorg Med Chem Lett, 2020):
pEC50: −log10 of the molar value. Values after ≈ are worked out from the molar mass of the structure shown.

Experiments:
[1] = Chaperone activity at GCase L444P GBA gene mutant in human fibroblasts derived from Gaucher patient assessed as increase in GPN-induced reduction of calcium release using Fluo-8AM based fluorescence assay
Homo sapiens = species on record: Homo sapiens; assay: Chaperone activity at GCase L444P GBA gene mutant in human fibroblasts derived from Gaucher patient assessed as increase in GPN-induced reduction of calcium release using Fluo-8AM based fluorescence assay relative to control
[2] = biological target: T1, Estrogen receptor (Homo sapiens) (UniProt P03372); assay: Agonist activity at estradiol receptor (unknown origin) at 10 uM relative to control
T1 sequence (whole entry): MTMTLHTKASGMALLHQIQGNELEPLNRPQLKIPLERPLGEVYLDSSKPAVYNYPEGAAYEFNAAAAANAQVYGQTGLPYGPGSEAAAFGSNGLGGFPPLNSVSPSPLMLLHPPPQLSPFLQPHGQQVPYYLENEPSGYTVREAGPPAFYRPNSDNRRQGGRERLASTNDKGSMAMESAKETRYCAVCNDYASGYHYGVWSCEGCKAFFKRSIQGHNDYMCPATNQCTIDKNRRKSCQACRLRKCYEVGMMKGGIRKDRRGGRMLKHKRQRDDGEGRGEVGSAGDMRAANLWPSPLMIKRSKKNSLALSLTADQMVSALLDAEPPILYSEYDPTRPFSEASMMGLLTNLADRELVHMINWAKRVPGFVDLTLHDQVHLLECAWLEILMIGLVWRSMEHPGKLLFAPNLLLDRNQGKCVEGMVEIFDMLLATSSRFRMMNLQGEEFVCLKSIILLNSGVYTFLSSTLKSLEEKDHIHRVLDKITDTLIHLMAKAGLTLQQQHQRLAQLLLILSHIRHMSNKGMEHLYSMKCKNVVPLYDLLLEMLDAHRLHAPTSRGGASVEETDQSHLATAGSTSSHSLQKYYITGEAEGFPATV

[3] = biological target: T2, Lysosomal acid glucosylceramidase (Homo sapiens) (UniProt P04062); assay: Chaperone activity at GCase in wild-type human fibroblasts assessed as increase in GPN-induced reduction of calcium release using Fluo-8AM based fluorescence assay relative to control
T2 sequence (whole entry): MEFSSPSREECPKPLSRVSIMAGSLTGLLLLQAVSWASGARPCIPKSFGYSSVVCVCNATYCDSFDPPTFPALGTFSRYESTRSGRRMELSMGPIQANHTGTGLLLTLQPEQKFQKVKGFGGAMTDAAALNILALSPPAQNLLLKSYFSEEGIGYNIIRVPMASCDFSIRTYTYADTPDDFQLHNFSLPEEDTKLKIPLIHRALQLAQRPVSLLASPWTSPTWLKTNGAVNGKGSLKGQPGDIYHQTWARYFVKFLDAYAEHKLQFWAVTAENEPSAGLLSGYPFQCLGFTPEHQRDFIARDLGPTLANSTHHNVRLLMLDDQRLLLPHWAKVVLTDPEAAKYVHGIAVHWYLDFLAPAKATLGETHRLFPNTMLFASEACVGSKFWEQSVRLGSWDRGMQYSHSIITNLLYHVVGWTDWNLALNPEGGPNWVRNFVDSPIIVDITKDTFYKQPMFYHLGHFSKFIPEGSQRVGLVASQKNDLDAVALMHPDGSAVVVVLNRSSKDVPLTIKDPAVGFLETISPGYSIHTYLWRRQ

[4] = Aqueous solubility of compound in PBS; type: physicochemical; details: buffer
[5] = mouse, microsomes
[6] = human, microsomes

| Emax (Homo sapiens) | Activity [2] | Emax [3] | solubility [4] | t1/2 [5] | t1/2 [6] | SMILES | pEC50 [1] |
| --- | --- | --- | --- | --- | --- | --- | --- |
| 40% | 47% |  |  |  |  | CC/C(=C/c1ccc(OCCN(C)C)cc1)Cc1ccccc1 | 5.64 |
| 0% | 46% |  |  |  |  | CC/C(=C/c1ccc(OCCN(C)C)cc1)c1ccc(F)cc1 | < 4.70 |
| 47% | 32% |  |  |  |  | CC/C(=C/c1ccc(OCCN(C)C)cc1)c1ccc(C#N)cc1 | 5.37 |
| 73% | 19% |  |  |  |  | CC/C(=C\c1ccc(OCCN(C)C)cc1)c1ccccc1 | 5.24 |
| 80% | 35% |  |  |  |  | CC/C(=C/c1ccc(OCCN(C)C)cc1)c1ccccc1 | 4.81 |
| 67% | 69% |  |  |  |  | CC/C(=C\c1ccc(OCCN(C)C)cc1)Cc1ccccc1 | 5.51 |
| 70% | 70% |  |  |  |  | CC/C(=C/c1ccc(OCCN(C)C)cc1)c1ccc(Cl)cc1 | 5.27 |
| 154% | 43% |  |  |  |  | CCC(Cc1ccc(OCCN(C)C)cc1)c1ccccc1 (configuration not stated) | 5.37 |
| 53% | 43% |  |  |  |  | CC/C(=C\c1ccccc1)c1ccc(OCCN(C)C)cc1 | 5.52 |
| 0% | 25% |  |  |  |  | CC/C(=C/c1ccc(OCCN(C)C)cc1)c1ccc(N)cc1 | < 4.70 |
| 0% | 75% |  |  |  |  | CCC(Cc1ccccc1)c1ccc(OCCN(C)C)cc1 (configuration not stated) | < 4.70 |
| 0% |  |  |  |  |  | CCCCC(C(=O)c1ccc(OCCN(C)C)cc1)c1ccccc1 (configuration not stated) | < 4.70 |
| 56% | 98% |  |  |  |  | CCCC/C(=C\c1ccc(OCCN(C)C)cc1)c1ccccc1 | 5.14 |

Second part, the compound before the results:

| SMILES | Emax (Homo sapiens) | Activity [2] | Emax [3] | solubility [4] | t1/2 [5] | t1/2 [6] | pEC50 [1] |
| --- | --- | --- | --- | --- | --- | --- | --- |
| CC(C)CC(C(=O)c1ccc(OCCN(C)C)cc1)c1cccc(C(C)C)c1 (configuration not stated) | 80% |  |  |  |  |  | 5.82 |
| CCCCC(C(=O)c1ccc(OCCN(C)C)cc1)c1ccccc1CC (configuration not stated) | 138% |  |  |  |  |  | 6.19 |
| CC/C(=C/c1ccc(OCCN(C)C)cc1)c1ccc([N+](=O)[O-])cc1 | 0% |  |  |  |  |  | < 4.70 |
| CCCCC(C(=O)c1ccc(OCCN(C)C)cc1)c1ccccc1C(C)C (configuration not stated) | 401% | 45% | 56% | 49.4 µM (≈ 18.8 µg/mL) | 7.9 min | 21.6 min | 5.85 |
| CC(C)C(C(=O)c1ccc(OCCN(C)C)cc1)c1ccccc1 (configuration not stated) | 54% |  |  |  |  |  | 5.36 |
| CC/C(=C(\c1ccccc1)c1ccc(OCCN(C)C)cc1)c1ccccc1 | 148% |  | 28% |  |  |  |  |
| CC(C)CCC(C(=O)c1ccc(OCCN(C)C)cc1)c1ccccc1 (configuration not stated) | 191% | 35% |  |  |  |  | 5.44 |
| CC/C(=C(\c1ccc(I)cc1)c1ccc(OCCN2CCCC2)cc1)c1ccccc1 [IDOXIFENE] | 48% |  |  |  |  |  | 4.97 |
| C/C=C/c1ccccc1C(CCCC)C(=O)c1ccc(OCCN(C)C)cc1 (configuration not stated) | 257% | 35% | 109% | 45.2 µM (≈ 17.2 µg/mL) | 9.1 min | 24.4 min | 5.66 |
| CCCCCCC(C(=O)c1ccc(OCCN(C)C)cc1)c1ccccc1 (configuration not stated) | 0% | 5% |  |  |  |  | < 4.70 |
| C=Cc1ccccc1C(CCCC)C(=O)c1ccc(OCCN(C)C)cc1 (configuration not stated) | 177% | 100% |  |  |  |  | 5.64 |
| CCCC(CCC)(C(=O)c1ccc(OCCN(C)C)cc1)c1ccccc1 | 60% | 25% |  |  |  |  | 5.40 |
| CC(C)CC(C(=O)c1ccc(OCCN(C)C)cc1)c1ccccc1 (configuration not stated) | 108% | 40% |  |  |  |  | 6.05 |
| CC(C)CC(C(=O)c1ccc(OCCN(C)C)cc1)c1ccccc1C(C)C (configuration not stated) | 406% | 39% | 148% |  |  |  |  |
| CC(C)CC(C(=O)c1ccc(OCCN(C)C)cc1)c1ccccc1C1CC1 (racemic) | 240% | 0% | 50% | 31.7 µM (≈ 12 µg/mL) | 7.7 min | 26.7 min | 5.51 |
| CC/C(=C/c1ccc(OCCN(C)C)cc1)c1ccc(C(N)=O)cc1 | 0% | 46% |  |  |  |  | < 4.70 |
